Source: ChEMBL document CHEMBL4308841, “Synthesis, in vitro antiproliferative activity, and kinase inhibitory effects of pyrazole-containing diarylureas and diarylamides” (Eur J Med Chem, 2018)

Assays:
[1] = tested on: CCRF-CEM; experiment: Growth inhibition of human CCRF-CEM cells assessed as cell growth at 10 uM incubated for 48 hrs by sulforhodamine B assay relative to control; assay type: functional; details: read-out: Activity
[2] = tested on: K562; experiment: Growth inhibition of human K562 cells assessed as cell growth at 10 uM incubated for 48 hrs by sulforhodamine B assay relative to control; assay type: functional; details: K562, 48 h, read-out: Activity
[3] = tested on: HOP-62; experiment: Growth inhibition of human HOP62 cells assessed as cell growth at 10 uM incubated for 48 hrs by sulforhodamine B assay relative to control; assay type: functional; details: HOP-62, 48 h, read-out: Activity
[4] = tested on: NCI-H23; experiment: Growth inhibition of human NCI-H23 cells assessed as cell growth at 10 uM incubated for 48 hrs by sulforhodamine B assay relative to control; assay type: functional; details: NCI-H23, 48 h, read-out: Activity
[5] = tested on: NCI-H322M; experiment: Growth inhibition of human NCI-H322M cells assessed as cell growth at 10 uM incubated for 48 hrs by sulforhodamine B assay relative to control; assay type: functional; details: read-out: Activity
[6] = tested on: NCI-H460; experiment: Growth inhibition of human NCI-H460 cells assessed as cell growth at 10 uM incubated for 48 hrs by sulforhodamine B assay relative to control; assay type: functional; details: NCI-H460, 48 h, read-out: Activity
[7] = tested on: COLO 205; experiment: Growth inhibition of human COLO205 cells assessed as cell growth at 10 uM incubated for 48 hrs by sulforhodamine B assay relative to control; assay type: functional; details: COLO 205, 48 h, read-out: Activity
[8] = tested on: HCT-116; experiment: Growth inhibition of human HCT116 cells assessed as cell growth at 10 uM incubated for 48 hrs by sulforhodamine B assay relative to control; assay type: functional; details: HCT-116, 48 h, read-out: Activity
[9] = tested on: HCT-15; experiment: Growth inhibition of human HCT15 cells assessed as cell growth at 10 uM incubated for 48 hrs by sulforhodamine B assay relative to control; assay type: functional; details: HCT-15, 48 h, read-out: Activity
[10] = tested on: KM12; experiment: Growth inhibition of human KM12 cells assessed as cell growth at 10 uM incubated for 48 hrs by sulforhodamine B assay relative to control; assay type: functional; details: KM12, 48 h, read-out: Activity
[11] = tested on: SF-539; experiment: Growth inhibition of human SF539 cells assessed as cell growth at 10 uM incubated for 48 hrs by sulforhodamine B assay relative to control; assay type: functional; details: SF-539, 48 h, read-out: Activity
[12] = tested on: LOX IMVI; experiment: Growth inhibition of human LOXIMVI cells assessed as cell growth at 10 uM incubated for 48 hrs by sulforhodamine B assay relative to control; assay type: functional; details: read-out: Activity
[13] = tested on: Malme-3M; experiment: Growth inhibition of human MALME-3M cells assessed as cell growth at 10 uM incubated for 48 hrs by sulforhodamine B assay relative to control; assay type: functional; details: read-out: Activity
[14] = tested on: M14; experiment: Growth inhibition of human M14 cells assessed as cell growth at 10 uM incubated for 48 hrs by sulforhodamine B assay relative to control; assay type: functional; details: M14, 48 h, read-out: Activity
[15] = tested on: SK-MEL-28; experiment: Growth inhibition of human SK-MEL-28 cells assessed as cell growth at 10 uM incubated for 48 hrs by sulforhodamine B assay relative to control; assay type: functional; details: SK-MEL-28, 48 h, read-out: Activity
[16] = tested on: SK-MEL-5; experiment: Growth inhibition of human SK-MEL-5 cells assessed as cell growth at 10 uM incubated for 48 hrs by sulforhodamine B assay relative to control; assay type: functional; details: SK-MEL-5, 48 h, read-out: Activity
[17] = tested on: UO-31; experiment: Growth inhibition of human UO31 cells assessed as cell growth at 10 uM incubated for 48 hrs by sulforhodamine B assay relative to control; assay type: functional; details: UO-31, 48 h, read-out: Activity
[18] = tested on: PC-3; experiment: Growth inhibition of human PC3 cells assessed as cell growth at 10 uM incubated for 48 hrs by sulforhodamine B assay relative to control; assay type: functional; details: PC-3, 48 h, read-out: Activity
[19] = tested on: MDA-MB-231; experiment: Growth inhibition of human MDA-MB-231 cells assessed as cell growth at 10 uM incubated for 48 hrs by sulforhodamine B assay relative to control; assay type: functional; details: MDA-MB-231, 48 h, read-out: Activity
[20] = tested on: BT-549; experiment: Growth inhibition of human BT549 cells assessed as cell growth at 10 uM incubated for 48 hrs by sulforhodamine B assay relative to control; assay type: functional; details: BT-549, 48 h, read-out: Activity
[21] = tested on: MDA-MB-468; experiment: Growth inhibition of human MDA-MB-468 cells assessed as cell growth at 10 uM incubated for 48 hrs by sulforhodamine B assay relative to control; assay type: functional; details: MDA-MB-468, 48 h, read-out: Activity
[22] = tested on: SF-539; experiment: Growth inhibition of human SF539 cells incubated for 48 hrs by sulforhodamine B assay; assay type: functional, cell-based; details: SF-539, 48 h
[23] = tested on: OVCAR-5; experiment: Growth inhibition of human OVCAR5 cells incubated for 48 hrs by sulforhodamine B assay; assay type: functional, cell-based; details: OVCAR-5, 48 h
[24] = tested on: MDA-MB-231; experiment: Growth inhibition of human MDA-MB-231 cells incubated for 48 hrs by sulforhodamine B assay; assay type: functional, cell-based; details: MDA-MB-231, 48 h
[25] = tested on: COLO 205; experiment: Growth inhibition of human COLO205 cells assessed as cell growth at 0.01 uM incubated for 48 hrs by sulforhodamine B assay relative to control; assay type: functional; details: COLO 205, 48 h, read-out: Activity
[26] = tested on: COLO 205; experiment: Growth inhibition of human COLO205 cells assessed as cell growth at 0.1 uM incubated for 48 hrs by sulforhodamine B assay relative to control; assay type: functional; details: COLO 205, 48 h, read-out: Activity
[27] = tested on: UACC-257; experiment: Growth inhibition of human UACC257 cells assessed as cell growth at 0.1 uM incubated for 48 hrs by sulforhodamine B assay relative to control; assay type: functional; details: UACC-257, 48 h, read-out: Activity
[28] = tested on: OVCAR-3; experiment: Growth inhibition of human OVCAR3 cells assessed as cell growth at 0.1 uM incubated for 48 hrs by sulforhodamine B assay relative to control; assay type: functional; details: OVCAR-3, 48 h, read-out: Activity
[29] = tested on: A498; experiment: Growth inhibition of human A498 cells assessed as cell growth at 0.1 uM incubated for 48 hrs by sulforhodamine B assay relative to control; assay type: functional; details: A498, 48 h, read-out: Activity
[30] = tested on: MCF7; experiment: Growth inhibition of human MCF7 cells assessed as cell growth at 0.1 uM incubated for 48 hrs by sulforhodamine B assay relative to control; assay type: functional; details: MCF7, 48 h, read-out: Activity
[31] = tested on: U-251; experiment: Growth inhibition of human U251 cells assessed as cell growth at 1 uM incubated for 48 hrs by sulforhodamine B assay relative to control; assay type: functional; details: U-251, 48 h, read-out: Activity
[32] = read-out: LC50 (the source's name)
[33] = read-out: pLC50 (the source's name) (converted)

In the case of `COc1cc(Cl)cc(-c2nn(-c3cccc(NC(=O)Nc4ccc(Cl)c(Cl)c4)c3)cc2-c2ccncc2)c1`, the growth at 10 µM [1] is reported as 5.73%, the growth at 10 µM [2] is reported as 10% and the growth at 10 µM [3] is reported as 15.7%. The growth at 10 µM [4] was 5.72%, the growth at 10 µM [5] was 32.3% and the growth at 10 µM [6] was 3.1%. For the same compound, the growth at 10 µM [7] was -70.3%, the growth at 10 µM [8] was 9.22% and the growth at 10 µM [9] was 13.9%. For the same compound, the growth at 10 µM [10] was 14.3%, the growth at 10 µM [11] was 20.9% and the growth at 10 µM [12] was 9.24%. For the same compound, the growth at 10 µM [13] was -19.8%, the growth at 10 µM [14] was 18.7% and the growth at 10 µM [15] was 23.2%. It also gave a growth at 10 µM [16] of 3.51%, a growth at 10 µM [17] of 0.64% and a growth at 10 µM [18] of -5.03%. The growth at 10 µM [19] was -21%, the growth at 10 µM [20] was 29.4% and the growth at 10 µM [21] was 0.72%. It also gave a GI50 ([22]; read-out: GI50) of 2.5 µM, a CC50 [22, 32] of over 100 µM and a TGI ([22]; read-out: TGI) of 13.2 µM. For the same compound, the GI50 ([22]; read-out: pGI50 (converted)) was 2.57 µM, the CC50 [22, 33] was over 100 µM and the TGI ([22]; read-out: pTGI (converted)) was 13.2 µM. For the same compound, the GI50 ([23]; read-out: GI50) was 4.3 µM, the CC50 [23, 32] was over 100 µM and the TGI ([23]; read-out: TGI) was over 100 µM. For the same compound, the GI50 ([23]; read-out: pGI50 (converted)) was 4.37 µM, the CC50 [23, 33] was over 100 µM and the TGI ([23]; read-out: pTGI (converted)) was over 100 µM. The GI50 ([24]; read-out: GI50) was 1.87 µM, the CC50 [24, 32] was 1.5 µM and the TGI ([24]; read-out: TGI) was 45.2 µM. It also gave a GI50 ([24]; read-out: pGI50 (converted)) of 1.86 µM, a CC50 [24, 33] of 15.8 µM and a TGI ([24]; read-out: pTGI (converted)) of 4.47 µM. The growth at 0.01 µM [25] was 99%, the growth at 0.1 µM [26] was 103% and the growth at 0.1 µM [27] was 96%. The growth at 0.1 µM [28] was 101%, the growth at 0.1 µM [29] was 58% and the growth at 0.1 µM [30] was 94%. It also gave a growth at 1 µM [31] of 71%.
